Reference: patent US12286442B2, “Methods and materials for increasing transcription factor eb polypeptide levels” (University of Pittsburgh—Of the Commonwealth System of …, priority 2019, dated 2025)

What was measured:
TFEB = experiment: High content screen measuring TFEB nuclear accumulation (TFEB nuclear/cytosol ratio) in BEAS-2B cells stably expressing TFEB-EGFP; type: cell-based, human; details: 18 hours incubation
Summary of the method: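 BEAS-2B cells stably expressing TFEB-EGFP (~2300–2500 per well) pre-incubated 8 hours, then exposed to serially diluted compounds (DMEM low glucose, 2% FBS) for 18 hours, PFA-fixed and DAPI-stained. Imaged nuclear (DAPI mask) vs cytosolic (expanded mask) TFEB-GFP; activity = minimal concentration raising nuclear/cytosol ratio by 25%.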

BEAS-2B cells = experiment: Toxicity: compound concentration needed to induce greater than 50 percent of cell loss; type: cell-based, human; details: 18 hours incubation
Summary of the method: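 BEAS-2B cells stably expressing TFEB-EGFP treated with serial compound dilutions for 18 h, then PFA-fixed, DAPI-stained and imaged. Toxicity scored as the concentration causing >50% cell loss, binned as ≥25 μM, <25 and >1 μM, or ≤1 μM ("+++").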

Compound | efficacy (minimal compound concentration needed to increase TFEB nuclear/cytosol ratio by 25%) (TFEB) | toxicity (compound concentration needed to induce greater than 50 percent of cell loss) (BEAS-2B cells)
CCC(C)NC(=O)Cn1c(=O)n(-c2ccc(OC)cc2)c(=O)c2ccc(C(=O)NCc3ccc(C)cc3)cc21 (centres unmarked) [Compound 216] | + (“+” equals >25 μM) | + (cell loss of greater than 50 percent at a concentration that equals or is greater than 25 μM was represented as)
O=C(Cn1c(=O)n(CC2CCCO2)c(=O)c2ccc(C(=O)NCCc3ccccc3)cc21)Nc1ccc(Br)cc1 (centres unmarked) [Compound 217] | + (“+” equals >25 μM) | + (cell loss of greater than 50 percent at a concentration that equals or is greater than 25 μM was represented as)
COc1ccc(-n2c(=O)c3ccc(C(=O)NCc4ccc(C)cc4)cc3n(CC(=O)Nc3cc(C)[nH]n3)c2=O)cc1 [Compound 218] | + (“+” equals >25 μM) | + (cell loss of greater than 50 percent at a concentration that equals or is greater than 25 μM was represented as)
Cc1ccc(NC(=O)Cn2c(=O)n(-c3ccccc3)c(=O)c3ccc(C(=O)NCc4ccco4)cc32)cc1 [Compound 219] | + (“+” equals >25 μM) | + (cell loss of greater than 50 percent at a concentration that equals or is greater than 25 μM was represented as)
COc1ccc(NC(=O)Cn2c(=O)n(-c3ccc(C)cc3)c(=O)c3ccccc32)cc1 [Compound 220] | + (“+” equals >25 μM) | + (cell loss of greater than 50 percent at a concentration that equals or is greater than 25 μM was represented as)
COc1ccc(NC(=O)Cn2c(=O)n(-c3ccc(CC(=O)NCCc4ccccc4)cc3)c(=O)c3ccccc32)cc1 [Compound 221] | + (“+” equals >25 μM) | + (cell loss of greater than 50 percent at a concentration that equals or is greater than 25 μM was represented as)
COc1ccc(-n2c(=O)c3ccc(C(=O)NCCc4ccccc4)cc3n(CC(=O)Nc3ccc(C)cc3)c2=O)cc1 [Compound 222] | ++ (“++” equals between ≤25 μM and >1 μM) | ++ (cell loss of greater than 50 percent at a concentration less than 25 μM and greater than 1 μM was represented as)
Cc1cc(C)cc(-n2c(=O)c3ccccc3n(CC(=O)Nc3c(C)cc(C)cc3C)c2=O)c1 [Compound 223] | + (“+” equals >25 μM) | + (cell loss of greater than 50 percent at a concentration that equals or is greater than 25 μM was represented as)
Cn1c(=O)c2ccccc2n(CC(=O)Nc2ccccc2)c1=O [Compound 224] | + (“+” equals >25 μM) | + (cell loss of greater than 50 percent at a concentration that equals or is greater than 25 μM was represented as)
Cn1c(=O)c2ccccc2n(CC(=O)Nc2ccc(F)cc2)c1=O [Compound 225] | + (“+” equals >25 μM) | + (cell loss of greater than 50 percent at a concentration that equals or is greater than 25 μM was represented as)
CCn1c(=O)c2ccccc2n(CC(=O)Nc2ccccc2)c1=O [Compound 226] | + (“+” equals >25 μM) | + (cell loss of greater than 50 percent at a concentration that equals or is greater than 25 μM was represented as)
O=C(Cn1c(=O)n(-c2ccccc2)c(=O)c2ccccc21)Nc1cccc(Cl)c1 [Compound 227] | + (“+” equals >25 μM) | + (cell loss of greater than 50 percent at a concentration that equals or is greater than 25 μM was represented as)
CN(C)CCn1c(=O)n(-c2ccccc2)c(=O)c2ccccc21 [Compound 228] | + (“+” equals >25 μM) | + (cell loss of greater than 50 percent at a concentration that equals or is greater than 25 μM was represented as)
O=c1c2ccccc2n(CCN2CCOCC2)c(=O)n1-c1ccccc1 [Compound 229] | + (“+” equals >25 μM) | + (cell loss of greater than 50 percent at a concentration that equals or is greater than 25 μM was represented as)
O=C(Cn1c(=O)n(-c2ccccc2)c(=O)c2ccccc21)N1CCOCC1 [Compound 230] | + (“+” equals >25 μM) | + (cell loss of greater than 50 percent at a concentration that equals or is greater than 25 μM was represented as)
CCc1ccc(-n2c(=O)c3ccc(C(=O)NCCc4ccccc4)cc3n(Cc3ccccc3C#N)c2=O)cc1 [Compound 231] | ++ (“++” equals between ≤25 μM and >1 μM) | + (cell loss of greater than 50 percent at a concentration that equals or is greater than 25 μM was represented as)
O=C(Cc1ccc(-n2c(=O)c3ccccc3n(Cc3ccccc3F)c2=O)cc1)NC1CC1 [Compound 232] | + (“+” equals >25 μM) | + (cell loss of greater than 50 percent at a concentration that equals or is greater than 25 μM was represented as)
C=CCn1c(=O)c2ccc(C(=O)NCc3ccccc3)cc2n(Cc2ccc(C)cc2)c1=O [Compound 233] | + (“+” equals >25 μM) | + (cell loss of greater than 50 percent at a concentration that equals or is greater than 25 μM was represented as)
O=C(NCc1ccco1)c1ccc2c(=O)n(-c3ccccc3)c(=O)n(Cc3cccc(F)c3)c2c1 [Compound 234] | ++ (“++” equals between ≤25 μM and >1 μM) | + (cell loss of greater than 50 percent at a concentration that equals or is greater than 25 μM was represented as)
COc1ccc(-n2c(=O)c3ccccc3n(Cc3ccccc3F)c2=O)cc1 [Compound 235] | ++ (“++” equals between ≤25 μM and >1 μM) | + (cell loss of greater than 50 percent at a concentration that equals or is greater than 25 μM was represented as)
COc1ccc(-n2c(=O)c3ccc(C(=O)NCCc4ccccc4)cc3n(Cc3cccc(F)c3)c2=O)cc1 [Compound 236] | ++ (“++” equals between ≤25 μM and >1 μM) | + (cell loss of greater than 50 percent at a concentration that equals or is greater than 25 μM was represented as)
CCc1ccc(-n2c(=O)c3ccccc3n(Cc3cccc(F)c3)c2=O)cc1 [Compound 237] | ++ (“++” equals between ≤25 μM and >1 μM) | + (cell loss of greater than 50 percent at a concentration that equals or is greater than 25 μM was represented as)
O=C(NCCc1ccccc1)c1ccc2c(=O)n(-c3ccccc3)c(=O)[nH]c2c1 [Compound 238] | + (“+” equals >25 μM) | + (cell loss of greater than 50 percent at a concentration that equals or is greater than 25 μM was represented as)
Fc1cc(Nc2nc(-c3ccncc3)cc3ncccc23)cc2cc[nH]c12 [Compound 239] | ++ (“++” equals between ≤25 μM and >1 μM) | + (cell loss of greater than 50 percent at a concentration that equals or is greater than 25 μM was represented as)
CC(C)c1nc2ccc(Nc3nc(-c4ccncc4)cc4ncccc34)cc2s1 [Compound 240] | +++ (“+++” equals ≤1 μM) | + (cell loss of greater than 50 percent at a concentration that equals or is greater than 25 μM was represented as)
c1cnc2cc(-c3ccncc3)nc(Nc3ccc4nc(C5CC5)sc4c3)c2c1 [Compound 241] | +++ (“+++” equals ≤1 μM) | + (cell loss of greater than 50 percent at a concentration that equals or is greater than 25 μM was represented as)
c1cnc2cc(-c3ccncc3)nc(Nc3ccc4[nH]ccc4c3)c2c1 [Compound 242] | +++ (“+++” equals ≤1 μM) | + (cell loss of greater than 50 percent at a concentration that equals or is greater than 25 μM was represented as)
CC(C)(C)c1cc2cc(Nc3nc(-c4ccncc4)cc4ncccc34)ccc2[nH]1 [Compound 243] | +++ (“+++” equals ≤1 μM) | + (cell loss of greater than 50 percent at a concentration that equals or is greater than 25 μM was represented as)
